Source: patent US4429126A, “Sodium salt of 4-oxo-10-(2,3-dimethylpentanamido)-4H-pyrimido[1,2-c]quinozoline-3-carbo xylic acid” (Fujisawa Pharmaceutical Co., Ltd., priority 1982, dated 1984)

Test system: PCA (Passive Cutaneous Anaphylaxis) reaction
Test: TEST I: Inhibitory effect on PCA (Passive Cutaneous Anaphylaxis) reaction (64 fold diluted antiserum)
Format: in vivo, male SD (Sprague-Dawley) strain rats
Settings: Rattus norvegicus, intravenous, 10 mg/kg, 5 minutes before antigen challenge, read-out: Inhibitory effect (%), Intravenous administration (10 mg/kg)
Method: A solution of egg albumin (2 mg) in B. pertussis-diphtheria-tetanus mixed vaccine (1 ml) was mixed with Freund incomplete adjuvant (1 ml) to give an emulsion. The emulsion was given subcutaneously in a single dose of 1 ml divided equally (0.25 ml) to the four foot pads of male SD (Sprague-Dawley) strain rats aged 8 weeks, each weighing about 300 g.
10 days after the immunization, blood samples were collected from femoral artery of the rats and allowed to stand under ice-cooling for 5 hours. The separated supernatant was centrifuged at 4° C. (10,000 r.p.m.×1 hour). The antisera thus obtained were stored at -80° C. prior to use.
Male SD-strain rats aged 8 weeks, weighing 290 to 330 g, were used for PCA reaction with the homologus reaginic antiserum as prepared above. Each 0.1 ml of 64 fold diluted antiserum were injected intradermally at separate sites on the back of rats clipped free of hair, and 48 hours later, 1 ml of aqueous solution containing each 5 mg of the egg albumin and Evans blue was injected intravenously to evoke PCA reaction. Test compound was given to the animals orally 60 minutes or intravenously 5 minutes before the challenge with antigen. Control group received vehicle. Each dose group consisted of 5 animals. One hour after the challenge with antigen, the animals were sacrificed and then skinned. Dye spots caused with antiserum were investigated for their size on the reversed side of the skin, respectively. The results were expressed by percent inhibition values calculated from averaged values of the longest and shortest diameters for each spot in comparison with those in control group.

In order of falling inhibition in vivo at 10 mg/kg:
1. CCOC(=O)c1cnc2c3ccccc3ncn2c1=O [compound 23]  100%
2. CCOC(=O)C(=O)Nc1ccc2ncnc(NC=C(C(=O)OCC)C(=O)OCC)c2c1 [compound 17]  100%
3. CCOC(=O)c1cnc2c3cc(N4CCN(C)CC4)ccc3ncn2c1=O [compound 34]  100%
4. CCOC(=O)C(=CNc1ncnc2ccccc12)C(=O)OCC [Test compound No. 1, diethyl[(4-quinazolinylamino)methylene]propanedioate]  100%
5. CCOC(=O)C(=CNc1ncnc2ccc(C)cc12)C(=O)OCC [compound 2]  100%
6. CCOC(=O)C(=CNc1ncnc2ccc(N(C)C)cc12)C(=O)OCC [compound 11]  100%
7. CCOC(=O)C(=CNc1ncnc2ccc(NC(=O)C(C)C)cc12)C(=O)OCC [Example 16, diethyl [(6-isobutyramido-4-quinazolinylamino)methylene]propanedioate]  100%
8. CCOC(=O)C(=CNc1ncnc2ccc(CC)cc12)C(=O)OCC [Test compound No. 3, diethyl [(6-ethyl-4-quinazolinylamino)methylene]propanedioate]  100%
9. CCOC(=O)C(=CNc1nc(=O)n(C)c2ccccc12)C(=O)OCC [compound 22]  100%
10. CCOC(=O)C(=CNc1ncnc2ccc(NC(C)=O)cc12)C(=O)OCC [compound 13]  100%
11. CCCc1ccc2ncnc(NC=C(C(=O)OCC)C(=O)OCC)c2c1 [compound 4]  85.9%
12. CCOC(=O)C(=CNc1ncnc2ccc(N3CCN(C)CC3)cc12)C(=O)OCC [compound 12]  51.2%
13. CCOC(=O)C(=CNc1nc(OC)nc2ccccc12)C(=O)OCC [compound 20]  37.6%

Same assay, conditions: intravenous, 10 mg/kg, 5 minutes before antigen challenge

In order of falling “Inhibitory effect (%), Intravenous administration (10 mg/kg)” value:
1. Diethyl [(6-acetamido-4-quinazolinylamino)methylene]propanedioate [Test compound No. 13]  100%
2. diethyl [{6-(3,3-dimethylbutyramido)-4-quinazolinylamino}methylene]propanedioate [Example 29]  100%
3. dimethyl [{6-pivalamido-4-quinazolinylamino}methylene]propanedioate [Example 30]  100%
4. methyl 4-oxo-10-(2-methylpropionamido)-4H-pyrimido[1,2-C]quinazoline-3-carboxylate [Example 47]  100%
5. ethyl 4-oxo-10-(3-cyclopentylpropionamido)-4H-pyrimido[1,2-C]quinazoline-3-carboxylate [Example 56]  100%
6. methyl 4-oxo-10-cyclohexanecarboxamido-4H-pyrimido[1,2-C]quinazoline-3-carboxylate [Example 48]  100%
7. methyl 4-oxo-10-(3,3-dimethylbutyramido)-4H-pyrimido[1,2-c]quinazoline-3-carboxylate [Example 38]  100%
8. 4-oxo-4H-pyrimido[1,2-c]quinazoline-3-carboxylic acid [Example 27]  100%
9. diethyl 4,9-dioxo-4H,9H-pyrimido[1,2-c]pyrimido[1,2-a]quinazoline-3,8-dicarboxylate [Example 25]  100%
10. 4-oxo-10-cyclohexanecarboxamido-4H-pyrimido[1,2-C]quinazoline-3-carboxylicacid [Example 52]  100%
11. 4H-pyrimido[1,2-c]quinazoline-4-one [Example 26]  100%
12. dimethyl [[6-(2,3-dimethylpentanamido)-4-quinazolinylamino]methylene]propanedioate [Example 57]  100%
13. 4-oxo-10-(2-methylpropionamido)-4H-pyrimido[1,2-C]quinazoline-3-carboxylicacid [Test compound No. 63]  100%
14. ethyl 4-oxo-10-(2-ethylbutyramido)-4H-pyrimido[1,2-C]quinazoline-3-carboxylate [Example 55]  91.0%
15. 4-oxo-10-(3-cyclopentylpropionamido)-4H-pyrimido[1,2-C]quinazoline-3-carboxylic acid [Example 53]  85.0%
16. methyl 4-oxo-10-(2-ethylbutyramido)-4H-pyrimido[1,2-C]quinazoline-3-carboxylate [Example 46]  76.3%
17. ethyl 4-oxo-4H-pyrimido[1,2-c]quinazoline-3-carboxylate [Test compound No. 23]  75.4%
18. diethyl [{6-methanesulfonamido-4-quinazolinylamino}methylene]propanedioate [Example 31]  64.9%
19. tetraethyl 2,2-[2,4-quinazolinediylbis(iminomethylidyne)]bispropanedioate [Example 8]  52.7%
20. diethyl [[6-(2-ethylbutyramido)-4-quinazolinylamino]methylene]propanedioate [Example 54]  48.4%
21. 4-oxo-10-(2-ethylbutyramido)-4H-pyrimido[1,2-C]quinazoline-3-carboxylic acid [Test compound No. 64]  39.8%
22. diethyl [(6-nitro-4-quinazolinylamino)methylene]propanedioate [Test compound No. 8]  24.4%
23. dimethyl [[6-cyclohexanecarboxamido-4-quinazolinylamino]methylene]propanedioate [Example 44]  0%

Same assay, conditions: oral, 100 mg/kg, 60 minutes before antigen challenge

In order of rising “Inhibitory effect (%), Oral administration (100 mg/kg)” value:
1. ethyl 4-oxo-10-(3-cyclopentylpropionamido)-4H-pyrimido[1,2-C]quinazoline-3-carboxylate [Example 56]  24.2%
2. dimethyl [[6-cyclohexanecarboxamido-4-quinazolinylamino]methylene]propanedioate [Example 44]  49.1%
3. CCOC(=O)C(=CNc1ncnc2ccc(NC(=O)C(C)C)cc12)C(=O)OCC [Example 16, diethyl [(6-isobutyramido-4-quinazolinylamino)methylene]propanedioate]  51.6%
4. methyl 4-oxo-10-cyclohexanecarboxamido-4H-pyrimido[1,2-C]quinazoline-3-carboxylate [Example 48]  57.5%
5. diethyl [(6-amino-4-quinazolinylamino)methylene]propanedioate [Example 15]  58.1%
6. methyl 4-oxo-10-pivalamido-4H-pyrimido[1,2-c]quinazoline-3-carboxylate [Test compound No. 59]  72.7%
7. ethyl 4-oxo-10-(3,3-dimethylbutyramido)-4H-pyrimido[1,2-c]quinazoline-3-carboxylate [Test compound No. 61]  74.2%
8. 4-oxo-10-pivalamido-4H-pyrimido[1,2-c]quinazoline-3-carboxyic acid [Test compound No. 60]  75.8%
9. CCOC(=O)C(=CNc1ncnc2ccc(NC(=O)CC)cc12)C(=O)OCC [compound 14]  77.4%
10. dimethyl [[6-(2,3-dimethylpentanamido)-4-quinazolinylamino]methylene]propanedioate [Example 57]  100%
